The values below come from US12252481B2, “Anti-viral compounds” (Aligos Therapeutics, Inc., priority 2021, dated 2025).

Where two headings read alike, the source gives them in different places.

For data set [1], the target named is T1, SARS-Cov-2 3CLpro (Severe acute respiratory syndrome coronavirus 2, UniProt P0DTD1).
T1 construct: 3CLpro and HRV3C was added using a Multidrop Combi
The data set is described as follows: biochemical. The note with it: read-out: SARS-Cov-2 IC50 (class).

The subject of data set [2] is human beta-coronavirus OC43. Kind of data set: OC43 coronavirus antiviral assay in HeLa cells (cytopathic effect, cell-titer-glo). Type of data set: cell-based. The note with it: 6 days at 33° C., read-out: EC50 (class). Background: Cytopathic effects are the visible damage that an infection or toxin causes in cultured cells.
Data set [3] has as its system A549-dual_ACE2_TMPRSS2 cells. The note with it: read-out: A549-dual_ACE2_TMPRSS2 (CC50); assay medium without virus, MTS, numeric values.
Data set [4] concerns the target T2, HRV3C (Human rhinovirus 14, UniProt P03303).
T2 construct: 3CLpro and HRV3C was added using a Multidrop Combi
The data set is described as follows: biochemical. Details: species or system HRV. The note with it: HRV3C, 30 mins preincubation, SAMDI-MS.

The test system of data set [5] is B.1.1.7 lineage SARS-CoV-2. Kind of data set: microbe, parasite or virus in culture. It counts as cell-based. The note with it: read-out: A549-dual_ACE2_TMPRSS2 (EC50).
Data set [6] has as its system HeLa cells. The data set is described as follows: Cytotoxicity in HeLa cells without OC43 virus (cell-titer-glo). The note with it: HeLa cells without OC43 virus.
Data set [7] addresses T3, human cathepsin L (Homo sapiens, UniProt P07711).
T3 construct: purchased R&D Systems
Kind of data set: Cathepsin L assay (Z-FR-AMC fluorescence). The note with it: 10 pM human cathepsin L, 30 mins preincubation, Z-FR-AMC 2 μM. Type of data set: biochemical. The essentials:
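Human cathepsin L (10 pM) was preincubated 30 min with compound, then reactions were started with Z-FR-AMC substrate (2 μM final). AMC fluorescence (355/460 nm) was read every 2 min over 30 min. IC50 came from a four-parameter curve fit.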

For data set [8], the system named is Vero E6-eGFP cells. The note with it: read-out: VeroE6 + CP (CC50), absence of virus, numeric values.
Data set [9] concerns SARS-CoV-2-GHB-03021/2020. It counts as cell-based. The note with it: read-out: VeroE6 + CP (EC50).
Where [10] appears, read: 3CLpro, 30 mins preincubation, SAMDI-MS.

T2 sequence (P03303 1538-1719): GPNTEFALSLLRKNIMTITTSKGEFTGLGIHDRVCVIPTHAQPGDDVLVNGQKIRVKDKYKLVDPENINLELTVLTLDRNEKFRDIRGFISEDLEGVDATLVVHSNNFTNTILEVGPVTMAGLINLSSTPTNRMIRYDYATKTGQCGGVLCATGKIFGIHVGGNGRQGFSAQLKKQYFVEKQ
T3 sequence (P07711 114-333): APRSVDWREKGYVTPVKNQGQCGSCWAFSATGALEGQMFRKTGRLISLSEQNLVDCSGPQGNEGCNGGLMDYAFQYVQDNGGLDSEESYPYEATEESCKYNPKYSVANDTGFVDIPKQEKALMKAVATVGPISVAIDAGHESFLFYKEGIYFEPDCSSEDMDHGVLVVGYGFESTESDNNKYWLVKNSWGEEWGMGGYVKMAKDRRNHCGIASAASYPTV

For the compound `C=C1C[C@@H]2C[C@H]1[C@H]1[C@@H]2CN(C(=O)[C@@H](NC(=O)C(F)(F)F)C(C)(C)C)[C@@H]1C(=O)N[C@H](C#N)C[C@@H]1CCNC1=O` [Compound 62, (1S,2S,3S,6R,7S)—N-[(1S)-1-cyano-2-[(3S)-2-oxopyrrolidin-3-yl]ethyl]-4-[(2S)-3,3-dimethyl-2-(2,2,2-trifluoroacetamido)butanoyl]-9-methylidene-4-azatricyclo[5.2.1.0^{2,6}]decane-3-carboxamide], the IC50 in data set [1] is below 0.02 µM; in data set [4] (read-out: HRV IC50 (bound)), above 10 µM; in data set [7] it was at least 10 µM. Besides, the EC50 in data set [2] and in data set [5] was below 0.1 µM throughout. For the same compound, the cytotoxic concentration (CC50) in data set [3] is above 10 µM; in [6] it was above 100 µM.
Take `CC(C)(C)[C@H](NC(=O)C(F)(F)F)C(=O)N1C[C@@H]2[C@H]3CC[C@H](CC3)[C@@H]2[C@H]1C(=O)N[C@H](C#N)C[C@@H]1CCNC1=O` [Compound 71b]: the IC50 in [1] (setting [10]) is below 0.02 µM; in data set [4] (read-out: HRV IC50 (bound)) it was above 10 µM. The EC50 in data set [2] and in data set [5] was below 0.1 µM throughout. The CC50 was above 10 µM in data set [3] and above 100 µM in data set [6].
`CC(C)(C)[C@H](NC(=O)C(F)(F)F)C(=O)N1C[C@H]2[C@@H]([C@H]1C(=O)N[C@H](C#N)CC1Cn3ncnc3NC1=O)[C@H]1C=C[C@@H]2C1` (stereo partly drawn) [Compound 51, (1R,2S,3S,6R,7S)—N-[(1S)-1-cyano-2-{5-oxo-4H,6H,7H-[1,2,4]triazolo[1,5-α]pyrimidin-6-yl}ethyl]-4-[(2S)-3,3-dimethyl-2-(2,2,2-trifluoroacetamido)butanoyl]-4-azatricyclo[5.2.1.0^{2,6}]dec-8-ene-3-carboxamide]: the IC50 was below 0.02 µM in data set [1], above 10 µM in data set [4] (read-out: HRV IC50 (bound)) and at least 10 µM in [7]. In addition, the EC50 in [2] lay within 0.1 to 1 µM; in [5], 1 to 10 µM. For the same compound, the CC50 in data set [3] is above 10 µM; in data set [6], above 100 µM; in data set [8], above 50 µM.
Turning to `CC(C)(C)[C@H](NC(=O)C(F)(F)F)C(=O)N1C[C@@]2(F)[C@@H]([C@H]1C(=O)N[C@H](C#N)C[C@@H]1CCNC1=O)[C@H]1C=C[C@@H]2C1` [Example 94, (1R,2R,3S,6S,7S)—N-[(1S)-1-cyano-2-[(3S)-2-oxopyrrolidin-3-yl]ethyl]-4-[(2S)-3,3-dimethyl-2-(2,2,2-trifluoroacetamido)butanoyl]-6-fluoro-4-azatricyclo[5.2.1.0^{2,6}]dec-8-ene-3-carboxamide], the IC50 in data set [1] is below 0.02 µM; in data set [4] (read-out: HRV IC50 (bound)), above 0.5 µM. The EC50 in data set [2] and in data set [5] was below 0.1 µM in each case. Also, the CC50 in [3] is above 1 µM; in [6] it was above 100 µM.
As for `CC(C)(C)[C@H](NC(=O)C(F)(F)F)C(=O)N1C[C@H]2[C@@H]([C@H]1C(=O)N[C@H](C#N)CC1CC3(COC3)NC1=O)[C@H]1C=C[C@@H]2C1` (stereo partly drawn) [Compound 106, (1R,2S,3S,6R,7S)—N-[(1S)-1-cyano-2-{6-oxo-2-oxa-5-azaspiro[3.4]octan-7-yl}ethyl]-4-[(2S)-3,3-dimethyl-2-(2,2,2-trifluoroacetamido)butanoyl]-4-azatricyclo[5.2.1.0^{2,6}]dec-8-ene-3-carboxamide], the values for the IC50 in data set [1] and in [4] (read-out: HRV IC50 (bound)) were below 0.02 µM and above 0.5 µM, respectively. Besides, the half-maximal effective concentration (EC50) in data set [2] and in data set [5] was below 0.1 µM throughout. The CC50 in data set [3] was above 10 µM; in data set [6], above 100 µM.
As for `CC(C)(C)[C@H](NC(=O)C(F)(F)F)C(=O)N1C[C@H]2[C@@H]([C@H]1C(=O)N[C@H](C#N)C[C@@H]1CCNC1=O)[C@H]1C=C[C@@H]2CC1` [Compound 59b], the IC50 in data set [1] (setting [10]) was below 0.02 µM; in [4] (read-out: HRV IC50 (bound)), above 10 µM; in data set [7] it was at least 10 µM. Besides, the 50% effective concentration (EC50) in data set [2] is below 0.1 µM. The 50% cytotoxic concentration (CC50) in data set [3] is above 10 µM; in [6], above 100 µM.
`CC(C)(C1CC1)[C@H](NC(=O)C(F)(F)F)C(=O)N1C[C@H]2[C@@H]([C@H]1C(=O)N[C@H](C#N)C[C@@H]1CCNC1=O)[C@H]1C=C[C@@H]2C1` [Compound 69, (1R,2S,3S,6R,7S)—N-[(1S)-1-cyano-2-[(3S)-2-oxopyrrolidin-3-yl]ethyl]-4-[(2S)-3-cyclopropyl-3-methyl-2-(2,2,2-trifluoroacetamido)butanoyl]-4-azatricyclo[5.2.1.0^{2,6}]dec-8-ene-3-carboxamide]: the IC50 was below 0.02 µM in data set [1], above 10 µM in data set [4] (read-out: HRV IC50 (bound)) and at least 10 µM in [7]. The EC50 in [2] and in data set [5] was below 0.1 µM each time. The CC50 in [3] was above 10 µM; in data set [6] it was above 100 µM.
With `CC(C)(C)[C@H](NC(=O)C(F)(F)F)C(=O)N1C[C@@H]2[C@H]3C[C@@H]([C@@H]2[C@H]1C(=O)N[C@H](C#N)C[C@@H]1CCNC1=O)C1(CC1)C3` [Compound 60, (1′S,2′R,5′S,6′S,7′S)—N-[(1S)-1-cyano-2-[(3S)-2-oxopyrrolidin-3-yl]ethyl]-4′-[(2S)-3,3-dimethyl-2-(2,2,2-trifluoroacetamido)butanoyl]-4′-azaspiro[cyclopropane-1,8′-tricyclo[5.2.1.0^{2,6}]decane]-5′-carboxamide], the half-inhibitory concentration (IC50) in data set [1] is 0.02 to 0.2 µM; in [4] (read-out: HRV IC50 (bound)), above 10 µM; in data set [7] it was at least 10 µM. Also, the results for the EC50 in data set [2] and in data set [5] were 1 to 10 µM and 0.1 to 1 µM, respectively. In addition, the 50% cytotoxic concentration (CC50) in data set [3] was above 10 µM; in [6], above 100 µM.
Consider `CC(C)(C)[C@H](NC(=O)C(F)(F)F)C(=O)N1C[C@@H]2[C@H]3C[C@@H]([C@@H]2[C@H]1C(=O)N[C@H](C#N)C[C@@H]1CCNC1=O)C(F)(F)C3` [Compound 61, (1S,2R,3S,6R,7S)—N-[(1S)-1-cyano-2-[(3S)-2-oxopyrrolidin-3-yl]ethyl]-4-[(2S)-3,3-dimethyl-2-(2,2,2-trifluoroacetamido)butanoyl]-9,9-difluoro-4-azatricyclo[5.2.1.0^{2,6}]decane-3-carboxamide], for which the IC50 is below 0.02 µM in data set [1], above 10 µM in data set [4] (read-out: HRV IC50 (bound)) and at least 10 µM in data set [7]. Also, in [2], the 50% effective concentration (EC50) was 0.1 to 1 µM. The CC50 in data set [3] is above 10 µM; in data set [6] it was above 100 µM.
Take `CC(C)(C)[C@H](NC(=O)C(F)(F)F)C(=O)N1C[C@H]2[C@@H]([C@H]1C(=O)NC(C[C@@H]1CCNC1=O)C(=O)C(=O)NC1CC1)[C@H]1C=C[C@@H]2C1` (stereo partly drawn) [Example 10, N-cyclopropyl-3-{[(1R,2S,3S,6R,7S)-4-[(2S)-3,3-dimethyl-2-(2,2,2-trifluoroacetamido)butanoyl]-4-azatricyclo[5.2.1.0^{2,6}]dec-8-en-3-yl]formamido}-2-oxo-4-[(3S)-2-oxopyrrolidin-3-yl]butanamide]: the IC50 in data set [1] is below 0.02 µM; in [4] (read-out: HRV IC50 (class)), 0.02 to 0.2 µM; in data set [7], at least 10 µM. In data set [2], the EC50 was in the range of 0.1 to 1 µM. The CC50 in data set [3] was above 10 µM; in data set [6] (read-out: CC50 (class)), above 10 µM; in data set [8], above 50 µM.
As for `CC(C)(C)[C@H](NC(=O)C(F)(F)F)C(=O)N1C[C@@H]2[C@H]3C[C@@H]([C@@H]2[C@H]1C(=O)N[C@H](C#N)C[C@@H]1CCNC1=O)[C@H](F)C3` [Example 86, (1S,2R,3S,6R,7S,9R)—N-[(1S)-1-cyano-2-[(3S)-2-oxopyrrolidin-3-yl]ethyl]-4-[(2S)-3,3-dimethyl-2-(2,2,2-trifluoroacetamido)butanoyl]-9-fluoro-4-azatricyclo[5.2.1.0^{2,6}]decane-3-carboxamide], the IC50 in [1] was below 0.02 µM; in data set [4] (read-out: HRV IC50 (bound)), above 0.5 µM; in [7] it was at least 10 µM. For the same compound, the EC50 in [2] and in data set [5] was below 0.1 µM throughout. The cytotoxic concentration (CC50) is above 10 µM in [3] and above 100 µM in data set [6].
For the compound `CC(C)(C)[C@H](NC(=O)C1COC1)C(=O)N1C[C@H]2[C@@H]([C@H]1C(=O)N[C@H](C#N)C[C@@H]1CCNC1=O)[C@H]1C=C[C@@H]2C1` [Example 36, (1R,2S,3S,6R,7S)—N-[(1S)-1-cyano-2-[(3S)-2-oxopyrrolidin-3-yl]ethyl]-4-[(2S)-3,3-dimethyl-2-(oxetan-3-ylformamido)butanoyl]-4-azatricyclo[5.2.1.0^{2,6}]dec-8-ene-3-carboxamide], the IC50 in data set [1] (setting [10]) was below 0.02 µM; in [4] (read-out: HRV IC50 (bound)), above 10 µM; in data set [7], at least 10 µM. The EC50 lay within 0.1 to 1 µM in data set [2] (Betacoronavirus 1, OC43, HeLa, 144 h); 0.1 to 1 µM in data set [9]; 1 to 10 µM in data set [5] (Severe acute respiratory syndrome coronavirus 2, 96 h).

Broadly, the IC50 is the concentration at which inhibition is half-maximal. As usually defined, the EC50 is the concentration giving half of the maximal effect. Usually CC50 stands for the concentration that lowers cell viability or growth by half.
